19 compounds from patent US5354862A, “Preparation and the use of halopropargylated cyclic quaternary ammonium compounds as antimicrobial agents” (Rohm and Haas Company, priority 1993, dated 1994) can be followed below.

What all share (assay): Broth two-fold serial dilution MIC test
One experiment concerns Pseudomonas aeruginosa. The class given is cell-based, Pseudomonas aeruginosa (ATCC 15442). The following applies: Psae. Summed up: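 Broth two-fold serial dilution MIC (500 to 0.25 ppm) was run against Pseudomonas aeruginosa, with compound from 1% stock in acetone/methanol/water 5:3:2. Vessels inoculated with standardized broth-grown cells were incubated, then scored for growth. MIC is the lowest concentration giving complete growth inhibition.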

In the next experiment the test system is Escherichia coli. The class given is cell-based, Escherichia coli (ATCC 11229). The following applies: Ecol. Summed up: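 Broth two-fold serial dilutions ran from 500 down to 0.25 ppm, prepared from a stock in acetone/methanol/water (5:3:2). Each tube received a standardized bacterial suspension and was incubated at a temperature suited to the species. MIC is the lowest concentration giving complete growth inhibition.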

The next experiment has as its system Staphylococcus aureus. The class given is cell-based, Staphylococcus aureus (ATCC 6538). Conditions: Saur. In short, it runs like this: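 Broth two-fold serial dilution from 500 ppm down to 0.25 ppm, compound delivered from acetone/methanol/water stock, inoculated with standardized cell suspension and incubated at an organism-appropriate temperature. MIC is the lowest concentration giving complete growth inhibition.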

The test system of another experiment is Aspergillus niger. The format is cell-based, Aspergillus niger (ATCC 6275). Conditions: Anig, TSB media. In short, it runs like this: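 Two-fold broth serial dilution from 500 ppm down to 0.25 ppm, compound stock in acetone/methanol/water 5:3:2. Vessels inoculated with standardized spore suspension harvested from agar slants, incubated at a species-appropriate temperature, then scored for growth/no growth. MIC is the lowest concentration giving complete growth inhibition.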

Setting [1] is: Pseudomonas aeruginosa, Table 2, M9G media, read-out: MIC.
[2] abbreviates: Pseudomonas aeruginosa, Table 2, TSB media, read-out: MIC.
[3] abbreviates: Escherichia coli, Table 2, TSB media, read-out: MIC.
The mark [4] stands for this setting: Staphylococcus aureus, Table 2, M9G media, read-out: MIC.
Where [5] appears, read: Staphylococcus aureus, Table 2, TSB media, read-out: MIC.
Where [6] appears, read: Aspergillus niger, Table 2, read-out: MIC.
[7] abbreviates: Escherichia coli, Table 2, M9G media, read-out: MIC.

Like-named read-outs stand apart in the source and are kept apart here.

Regarding `OCCCCCCCCCCCC[N+]1(CC#CI)CCCCC1` [Compound 20, 1-(12-hydroxydodecyl)-1-(3-iodopropargyl)-piperidinium 4-methylbenzenesulfonate], the MIC in the experiment on Pseudomonas aeruginosa (setting [1]) was above 250 µg/mL; in the experiment on Pseudomonas aeruginosa (setting [2]), above 250 µg/mL; in the experiment on Escherichia coli (setting [3]), 250 µg/mL; with Staphylococcus aureus (setting [4]), 8 µg/mL; with Staphylococcus aureus (setting [5]), 63 µg/mL; in the experiment with Aspergillus niger (setting [6]), 125 µg/mL.
As for `CCCCCCCCCCCCCC[N+]1(CC#CI)CCCC1` [Compound 34, 1-tetradecyl-1-(3-iodopropargyl)-pyrrolidinium benzenesulfonate], the MIC with Pseudomonas aeruginosa (Table 2, M9G media) is reported as 2 ppm; in the experiment with Pseudomonas aeruginosa (Table 2, TSB media), 2 ppm; against Pseudomonas aeruginosa (Table 3 comparison, M9G media), 2 ppm; against Pseudomonas aeruginosa (Table 3 comparison, TSB media), 2 ppm; with Escherichia coli (Table 2, M9G media), 0.25 ppm; in the experiment on Escherichia coli (Table 2, TSB media), 0.25 ppm. Moreover, the MIC against Escherichia coli (Table 3 comparison, M9G media) was 0.25 ppm; against Escherichia coli (Table 3 comparison, TSB media) it was 0.25 ppm; with Staphylococcus aureus (Table 2, M9G media), below 0.25 ppm; against Staphylococcus aureus (Table 2, TSB media), below 0.25 ppm; against Staphylococcus aureus (Table 3 comparison, M9G media), below 0.25 ppm; against Staphylococcus aureus (Table 3 comparison, TSB media), below 0.25 ppm. Also, the MIC against Aspergillus niger (Table 2) and in the experiment with Aspergillus niger (Table 3 comparison) was 0.25 ppm throughout.
Take `CCCCCCCCCCCCCC[N+]1(CC#CI)CCCCC1` [Compound 59, 1-tetradecyl-1-(3-iodopropargyl)-piperidinium benzenesulfonate]: the MIC in the experiment on Pseudomonas aeruginosa (Table 2, M9G media) amounted to 32 ppm; against Pseudomonas aeruginosa (Table 2, TSB media), 125 ppm; against Escherichia coli (Table 2, M9G media), 8 ppm; in the experiment on Escherichia coli (Table 2, TSB media), 16 ppm; against Staphylococcus aureus (Table 2, M9G media) it was 4 ppm; against Staphylococcus aureus (Table 2, TSB media) it was 4 ppm. In the experiment with Aspergillus niger (Table 2), this compound registered an MIC of 8 ppm.
Regarding `OCCCCCCC[N+]1(CC#CI)CCCCC1` [Compound 24, 1-(7-hydroxyheptyl)-1-(3-iodopropargyl)-piperidinium-4methylbenzenesulfonate], the MIC was above 500 µg/mL with Pseudomonas aeruginosa (setting [1]); above 500 µg/mL in the experiment with Pseudomonas aeruginosa (setting [2]); above 500 µg/mL with Escherichia coli (setting [3]); 63 µg/mL in the experiment on Staphylococcus aureus (setting [4]); 500 µg/mL with Staphylococcus aureus (setting [5]); above 500 µg/mL in the experiment with Aspergillus niger (setting [6]).
Take `CCCCCCCCCCCCCCC[N+]1(CC#CI)CCCC1` [Compound 10, 1-pentadecyl-1-(3-iodopropargyl)-pyrrolidinium 4-methylbenzenesulfonate]: the MIC is 8 ppm in the experiment on Pseudomonas aeruginosa (Table 2, M9G media); 250 ppm with Pseudomonas aeruginosa (Table 2, TSB media); 4 ppm with Escherichia coli (Table 2, M9G media); 32 ppm against Escherichia coli (Table 2, TSB media); below 0.25 µg/mL with Staphylococcus aureus (setting [4]); 1 ppm with Staphylococcus aureus (Table 2, TSB media). In the experiment with Aspergillus niger (setting [6]), the MIC was below 0.25 µg/mL.
As for `CCCCCCCCCCCCCC[N+]1(CC#CI)CCCC1` [Compound 69, 1-tetradecyl-1-(3-iodopropargyl)-pyrrolidinium bromide], the MIC with Pseudomonas aeruginosa (Table 2, M9G media) is 8 ppm; against Pseudomonas aeruginosa (Table 2, TSB media) it was 32 ppm; in the experiment on Escherichia coli (Table 2, M9G media), 1 ppm; against Escherichia coli (Table 2, TSB media), 4 ppm; in the experiment on Staphylococcus aureus (Table 2, M9G media) it was 0.25 ppm; against Staphylococcus aureus (Table 2, TSB media), 0.25 ppm. Moreover, the MIC in the experiment with Aspergillus niger (Table 2) is on record as 4 ppm.
With `CCCC[N+]1(CC#CI)CCOCC1` [Compound 93, 4-n-butyl-4-(3-iodopropargyl)-morpholinium methanesulfonate], the MIC was above 500 µg/mL in the experiment with Pseudomonas aeruginosa (setting [1]); above 500 µg/mL in the experiment on Pseudomonas aeruginosa (setting [2]); 125 µg/mL with Escherichia coli (setting [7]); 125 µg/mL in the experiment on Escherichia coli (setting [3]); above 500 µg/mL in the experiment on Staphylococcus aureus (setting [4]); above 500 µg/mL in the experiment with Staphylococcus aureus (setting [5]). Moreover, in the experiment on Aspergillus niger (setting [6]), the MIC was 500 µg/mL.
Consider `CCCCCCCCCCCCC[N+]1(CC#CI)CCOCC1` [Compound 89, 4-tridecyl-4-(3-iodopropargyl)-morpholinium methanesulfonate], for which the MIC in the experiment with Pseudomonas aeruginosa (setting [1]) stood at 16 µg/mL; in the experiment with Pseudomonas aeruginosa (setting [2]), 64 µg/mL; with Escherichia coli (setting [7]) it was 2 µg/mL; in the experiment on Escherichia coli (setting [3]), 8 µg/mL; with Staphylococcus aureus (setting [4]), 1 µg/mL; in the experiment on Staphylococcus aureus (setting [5]), 2 µg/mL. Also, the MIC with Aspergillus niger (setting [6]) was 8 µg/mL.
`OCCCCCCCC[N+]1(CC#CI)CCCCC1` [Compound 23, 1-(8-hydroxyoctyl)-1-(3-iodopropargyl)-1-piperidinium 4-methylbenzenesulfonate]: the MIC in the experiment on Pseudomonas aeruginosa (setting [1]) is above 500 µg/mL; in the experiment with Pseudomonas aeruginosa (setting [2]) it was above 500 µg/mL; in the experiment with Escherichia coli (setting [3]), above 500 µg/mL; with Staphylococcus aureus (setting [4]) it was 63 µg/mL; in the experiment on Staphylococcus aureus (setting [5]) it was 250 µg/mL; in the experiment with Aspergillus niger (setting [6]) it was above 500 µg/mL.
Turning to `CCCCCCCCCCCCCC[N+]1(CC#CI)CCOCC1` [Compound 72, 4-tetradecyl-4-(3-iodopropargyl)-rnorpholinium iodide], the MIC was determined as 16 ppm in the experiment with Pseudomonas aeruginosa (Table 2, M9G media); 64 ppm against Pseudomonas aeruginosa (Table 2, TSB media); 0.5 ppm against Escherichia coli (Table 2, M9G media); 4 ppm in the experiment with Escherichia coli (Table 2, TSB media); 0.25 ppm with Staphylococcus aureus (Table 2, M9G media); 0.25 ppm against Staphylococcus aureus (Table 2, TSB media). The same compound showed an MIC against Aspergillus niger (Table 2) of 4 ppm.
As for `CCCCCCCCCCCCCC[N+]1(CC#CI)CCOCC1` [Compound 28, 4-tetradecyl-4-(3-iodopropargyl)-morpholinium 4-methylbenzenesulfonate], the MIC against Pseudomonas aeruginosa (Table 2, M9G media) amounted to 4 ppm; against Pseudomonas aeruginosa (Table 2, TSB media), 4 ppm; against Escherichia coli (Table 2, M9G media), 1 ppm; in the experiment on Escherichia coli (Table 2, TSB media) it was 2 ppm; in the experiment on Staphylococcus aureus (setting [4]), 0.25 µg/mL; with Staphylococcus aureus (Table 2, TSB media), 0.25 ppm. The MIC with Aspergillus niger (Table 2) is given as 8 ppm.
Regarding `CCCCCCCCCC[N+]1(CC#CI)CCOCC1` [Compound 91, 4-decyl-4-(3-iodopropargyl)-morpholinium methanesulfonate], the MIC in the experiment with Pseudomonas aeruginosa (setting [1]) is 250 µg/mL; with Pseudomonas aeruginosa (setting [2]), above 500 µg/mL; in the experiment with Escherichia coli (setting [7]) it was 4 µg/mL; in the experiment with Escherichia coli (setting [3]) it was 8 µg/mL; in the experiment with Staphylococcus aureus (setting [4]) it was 1 µg/mL; with Staphylococcus aureus (setting [5]), 8 µg/mL. In addition, the MIC in the experiment with Aspergillus niger (setting [6]) stood at 32 µg/mL.
With `CCCCCCCCCCCCCCCC[N+]1(CC#CI)CCCC1` [Compound 32, 1-hexadecyl-1-(3-iodopropargy)-pyrrolidinium benzenesulfonate], the MIC in the experiment with Pseudomonas aeruginosa (Table 2, M9G media) is 32 ppm; against Pseudomonas aeruginosa (Table 2, TSB media) it was 125 ppm; with Escherichia coli (Table 2, M9G media), 4 ppm; with Escherichia coli (Table 2, TSB media) it was 16 ppm; in the experiment with Staphylococcus aureus (Table 2, M9G media), below 0.25 ppm; with Staphylococcus aureus (Table 2, TSB media), below 0.25 ppm. Moreover, the MIC with Aspergillus niger (Table 2) was below 0.25 ppm.
For the compound `CCCC[N+]1(CC#CI)CCCC1` [Compound 9, 1-butyl-1-(3-iodopropargyl)-pyrrolidinium 4-methylbenzenesulfonate], the MIC with Pseudomonas aeruginosa (setting [1]) was 500 µg/mL; with Pseudomonas aeruginosa (setting [2]) it was above 500 µg/mL; against Escherichia coli (Table 2, M9G media) it was 500 ppm; against Escherichia coli (Table 2, TSB media), 250 ppm; in the experiment with Staphylococcus aureus (setting [4]), 250 µg/mL; with Staphylococcus aureus (setting [5]), 250 µg/mL. Besides, the MIC in the experiment on Aspergillus niger (setting [6]) stood at 500 µg/mL.
Consider `CCCCCCCCCCCCCCCC[N+]1(CC#CI)CCOCC1` [Compound 49, 4-hexadecyl-4-(3-iodopropargyl)-morpholinium 4-methylbenzenesulfonate], for which the MIC in the experiment on Pseudomonas aeruginosa (Table 2, M9G media) is given as 8 ppm; in the experiment on Pseudomonas aeruginosa (Table 2, TSB media), 8 ppm; against Escherichia coli (Table 2, M9G media), 1 ppm; in the experiment on Escherichia coli (Table 2, TSB media), 2 ppm; in the experiment with Staphylococcus aureus (Table 2, M9G media), below 0.25 ppm; in the experiment on Staphylococcus aureus (Table 2, TSB media), 0.5 ppm. Moreover, the MIC against Aspergillus niger (Table 2) stood at 1 ppm.
Turning to `OCC[N+]1(CC#CI)CCCCC1` [Compound 18, 1-(2-hydroxyethyl)-1-(3-iodopropargyl)-piperidinium 4-methylbenzenesulfonate], the MIC in the experiment with Pseudomonas aeruginosa (setting [1]) came out at 250 µg/mL; in the experiment on Pseudomonas aeruginosa (setting [2]), 125 µg/mL; in the experiment on Escherichia coli (setting [3]) it was 250 µg/mL; in the experiment on Staphylococcus aureus (setting [4]) it was 16 µg/mL; in the experiment with Staphylococcus aureus (setting [5]) it was 32 µg/mL; in the experiment with Aspergillus niger (setting [6]) it was 250 µg/mL.
For `CCCCCCCCCCCCC[N+]1(CC#CI)CCCC1` [Compound 36, 1-tridecyl-1-(3-iodopropargyl)-pyrrolidinium methanesulfonate], the MIC against Pseudomonas aeruginosa (Table 2, M9G media) was 32 ppm; against Pseudomonas aeruginosa (Table 2, TSB media), 63 ppm; in the experiment with Escherichia coli (Table 2, M9G media) it was 2 ppm; against Escherichia coli (Table 2, TSB media) it was 8 ppm; against Staphylococcus aureus (Table 2, M9G media) it was below 0.25 ppm; with Staphylococcus aureus (Table 2, TSB media), below 0.25 ppm. Also, in the experiment on Aspergillus niger (Table 2), the MIC is 1 ppm.
As for `CCCCCCCCCCOC(=O)CC[N+]1(CC#CI)CCOCC1` [Compound 96], the MIC against Pseudomonas aeruginosa (Table 2, M9G media) is 500 ppm; in the experiment with Pseudomonas aeruginosa (Table 2, TSB media) it was above 500 ppm; in the experiment with Escherichia coli (Table 2, M9G media), 8 ppm; in the experiment on Escherichia coli (Table 2, TSB media), 64 ppm; in the experiment on Staphylococcus aureus (Table 2, M9G media), 32 ppm; in the experiment with Staphylococcus aureus (Table 2, TSB media) it was 64 ppm. The same compound displayed an MIC against Aspergillus niger (Table 2) of 16 ppm.
Turning to `CCCCCCCCCCCCCC[N+]1(CC#CI)CCOCC1` [Compound 71, 4-tetradecyl-4-(3-iodopropargyl)-morpholinium bromide], the MIC in the experiment on Pseudomonas aeruginosa (Table 2, M9G media) was found to be 8 ppm; in the experiment on Pseudomonas aeruginosa (Table 2, TSB media), 32 ppm; against Escherichia coli (Table 2, M9G media) it was 1 ppm; in the experiment with Escherichia coli (Table 2, TSB media), 4 ppm; in the experiment on Staphylococcus aureus (Table 2, M9G media) it was 0.25 ppm; with Staphylococcus aureus (Table 2, TSB media), 0.25 ppm. The same compound showed an MIC against Aspergillus niger (Table 2) of 4 ppm.
